Results reported in patent US10947289B2, “Glyco-modified atrial natriuretic peptide” (priority 2013, dated 2021).

Experiments:
[1] = biological target: T1, human GC-A (Homo sapiens, UniProt P16066); test: cGMP elevating activity in CHO/human GC-A cells (Test Example 1); format: cell-based
T1 construct: expressed in transfected cells; host or cells: CHO cells
T1 sequence (P16066 33-1061): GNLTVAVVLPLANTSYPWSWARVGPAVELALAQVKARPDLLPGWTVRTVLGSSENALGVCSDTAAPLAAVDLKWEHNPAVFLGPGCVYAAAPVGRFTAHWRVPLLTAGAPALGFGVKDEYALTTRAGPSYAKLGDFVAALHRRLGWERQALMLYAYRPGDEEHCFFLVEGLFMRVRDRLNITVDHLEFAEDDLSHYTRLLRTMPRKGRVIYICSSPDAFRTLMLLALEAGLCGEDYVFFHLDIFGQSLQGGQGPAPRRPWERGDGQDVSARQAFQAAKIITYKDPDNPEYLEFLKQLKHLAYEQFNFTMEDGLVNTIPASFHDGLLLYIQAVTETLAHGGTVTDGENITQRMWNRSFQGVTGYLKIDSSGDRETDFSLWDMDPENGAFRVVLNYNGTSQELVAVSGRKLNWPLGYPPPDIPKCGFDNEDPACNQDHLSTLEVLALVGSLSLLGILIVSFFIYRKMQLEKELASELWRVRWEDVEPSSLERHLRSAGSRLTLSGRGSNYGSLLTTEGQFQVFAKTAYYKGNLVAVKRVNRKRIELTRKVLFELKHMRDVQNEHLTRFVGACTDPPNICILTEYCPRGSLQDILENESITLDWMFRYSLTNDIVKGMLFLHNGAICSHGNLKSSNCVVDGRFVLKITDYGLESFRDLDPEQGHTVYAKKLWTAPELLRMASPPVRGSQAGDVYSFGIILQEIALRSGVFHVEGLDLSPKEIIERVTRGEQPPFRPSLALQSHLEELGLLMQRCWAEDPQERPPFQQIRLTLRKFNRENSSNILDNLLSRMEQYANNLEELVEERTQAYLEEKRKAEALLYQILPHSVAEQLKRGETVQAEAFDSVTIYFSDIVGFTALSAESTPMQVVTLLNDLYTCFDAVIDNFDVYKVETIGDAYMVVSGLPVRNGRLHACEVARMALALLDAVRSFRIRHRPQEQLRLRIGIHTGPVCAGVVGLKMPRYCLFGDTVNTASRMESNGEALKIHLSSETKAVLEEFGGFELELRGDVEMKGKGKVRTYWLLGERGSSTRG
Procedure, shortened: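 CHO cells stably expressing human GC-A, pre-incubated 10 min at room temperature in 1.6 mM IBMX/KRB, then exposed to test peptide 15 min in CO2 incubator. Lysate cGMP measured by HTRF. Activity (T/C) scaled so solvent-only = 0 and 1 nM ANP = 1.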

[2] = Detection of test substance in rat plasma by LC-MS/MS (Test Example 3); format: in vivo; details: rat plasma, 100 nmol/kg i.v., LC-MS/MS; time at which the test substance was finally detected
Procedure, shortened: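 Jugular blood drawn before and 15–240 min after dosing; plasma spiked with stable-isotope hANP internal standard and AcOH/water/DMSO solvent, then passed through a 50K filter with the 3K-retained fraction analysed by LC-MS/MS. Value is the last time point at which test substance was detected.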

Which results are given for CC[C@H](C)[C@@H]1NC(=O)[C@H](CCCNC(=N)N)NC(=O)[C@H](CC(=O)O)NC(=O)[C@H](CCSC)NC(=O)[C@H](CCCNC(=N)N)NC(=O)CNC(=O)CNC(=O)[C@H](Cc2ccccc2)NC(=O)[C@@H](NC(=O)[C@H](CO)NC(=O)[C@H](CO)NC(=O)[C@H](CCCNC(=N)N)NC(=O)[C@H](CCCNC(=N)N)NC(=O)[C@H](CC(C)C)NC(=O)[C@H](CO)NC(=O)CCOCCOCCOCCOCCOCCOCCOCCOCCOCCOCCOCCOCCNC(=O)[C@H](CC(=O)N[C@@H]2O[C@H](CO)[C@@H](O[C@@H]3O[C@H](CO)[C@@H](O[C@@H]4O[C@H](CO[C@H]5O[C@H](CO)[C@@H](O)[C@H](O)[C@@H]5O[C@@H]5O[C@H](CO)[C@@H](O[C@@H]6O[C@H](CO[C@]7(C(=O)O)C[C@H](O)[C@@H](NC(C)=O)[C@H]([C@H](O)[C@H](O)CO)O7)[C@H](O)[C@H](O)[C@H]6O)[C@H](O)[C@H]5NC(C)=O)[C@@H](O)[C@H](O[C@H]5O[C@H](CO)[C@@H](O)[C@H](O)[C@@H]5O[C@@H]5O[C@H](CO)[C@@H](O[C@@H]6O[C@H](CO[C@]7(C(=O)O)C[C@H](O)[C@@H](NC(C)=O)[C@H]([C@H](O)[C@H](O)CO)O7)[C@H](O)[C@H](O)[C@H]6O)[C@H](O)[C@H]5NC(C)=O)[C@@H]4O)[C@H](O)[C@H]3NC(C)=O)[C@H](O)[C@H]2NC(C)=O)NC(=O)CO[C@@H]2O[C@H](CO)[C@@H](O[C@@H]3O[C@H](CO)[C@@H](O[C@@H]4O[C@H](CO[C@H]5O[C@H](CO)[C@@H](O)[C@H](O)[C@@H]5O[C@@H]5O[C@H](CO)[C@@H](O[C@@H]6O[C@H](CO[C@]7(C(=O)O)C[C@H](O)[C@@H](NC(C)=O)[C@H]([C@H](O)[C@H](O)CO)O7)[C@H](O)[C@H](O)[C@H]6O)[C@H](O)[C@H]5NC(C)=O)[C@@H](O)[C@H](O[C@H]5O[C@H](CO)[C@@H](O)[C@H](O)[C@@H]5O[C@@H]5O[C@H](CO)[C@@H](O[C@@H]6O[C@H](CO[C@]7(C(=O)O)C[C@H](O)[C@@H](NC(C)=O)[C@H]([C@H](O)[C@H](O)CO)O7)[C@H](O)[C@H](O)[C@H]6O)[C@H](O)[C@H]5NC(C)=O)[C@@H]4O)[C@H](O)[C@H]3NC(C)=O)[C@H](O)[C@H]2NC(C)=O)CSSC[C@@H](C(=O)N[C@@H](CC(N)=O)C(=O)N[C@@H](CO)C(=O)N[C@@H](Cc2ccccc2)C(=O)N[C@@H](CCCNC(=N)N)C(=O)N[C@@H](Cc2ccc(O)cc2)C(=O)O)NC(=O)CNC(=O)[C@H](CC(C)C)NC(=O)CNC(=O)[C@H](CO)NC(=O)[C@H](CCC(N)=O)NC(=O)[C@H](C)NC(=O)CNC1=O [Compound 2-27, SG-(SG-)Asn-PEG(11)-hANP(1-28)]?
EC50 [1]: 0.26 nM; Maximum time of detection after administration [2]: 2 h
